Source: patent publication US8258119B2, “Anti-cancer drugs and uses relating thereto for metastatic malignant melanoma and other cancers” (Kasina Laila Innova Pharmaceuticals, priority 2008, dated 2012)
In brackets after ≈: the same amount, converted by molar mass.

Columns and labels:
Format in all cases: cell-based
[1] = system: A2058, human malignant melanoma cells; test: MTT cell proliferation assay in A2058 cells; conditions: A2058, 72 h, three days exposure
Description: (§1) MTT [3-(4,5-dimethylthiazol-2-yl)-2,5-diphenyltetrazolium bromide] incorporation based cell proliferation assay was performed using standard procedure with some modifications (38). The cytotoxic efficacy of the test compounds were evaluated in human malignant melanoma A2058 cells by MTT cell proliferation assay kit (Roche Applied Sciences, Germany). The assay was carried out according to the instruction provided by the vendor. Briefly, equal numbers of cells was plated in 96-well flat-bottomed plates in 100 μl of medium and were exposed to either DTIC or its derivative compounds at various concentrations up to 150 μg/ml for a period of three days. Vehicle control culture wells received only a maximum of 0.5% DMSO. Thereafter, 0.5 mg/ml of MTT reagent was added to each well and the microplate was incubated further for 4 h at 37° C. in presence of 5% CO2. Finally, the cells were solubilized by adding solubilizing solution and allowed to incubate at 37° C. overnight. After complete solubilization of the formazan crystals the absorbance was read at 540 nm in a microplate reader (BioRad, USA). The results (mean OD±SD) obtained from quadruplicate wells were used in calculation to determine the inhibition of cell proliferation (50% inhibitory concentration, IC50) of the test compounds.

[2] = system: B16F0 mouse melanoma cells; test: MTT cell proliferation assay in B16F0 cells; conditions: B16F0, 72 h, 3 days, read-out: 50% of inhibitory concentration, IC50 in B16 F0 cells
Description: as §1, with “Thereafter, 0.5 mg/ml of MTT reagent was added to each well and the microplate was incubated further for 4 h at 37° C. in presence of 5% CO2. Finally, the cells were solubilized by adding solubilizing solution and allowed to incubate at 37° C. overnight.” left out, “The results (mean OD±SD) obtained from quadruplicate wells were used in calculation to determine the inhibition of cell proliferation (50% inhibitory concentration, IC50) of the test compounds.” left out
The comparative anti-tumor growth potential of DTIC and Compound 6 was further tested in B16F0 mouse melanoma cells and A375 human melanoma cells by using MTT based cell proliferation assay following the methodology described earlier (Example 19). […] After adding the MTT reagent, the cells were solubilized and the intracellular formazan formation was calorimetrically read at 540 nm in a microplate reader (BioRad, USA). […]

[3] = system: B16F0 mouse melanoma cells; test: LDH leakage cytotoxicity assay in B16F0 cells; conditions: treatment concentration 100 μg/ml
Description: (§2) From the data obtained from the MTT assay (Table J), compound 1, compound 6 and compound 13 have been selected and their cytotoxicity potential has been further validated in LDH leakage assay. […] Cytotoxicity potential of DTIC and its derivative compounds were evaluated by measuring the leaked lactate dehydrogenase (LDH) into the culture supernatant (LDH Cytotoxicity Detection Roche Applied Sciences, Germany). The leaked LDH is directly proportional to the cell damage done by the cytotoxic compounds. In brief, cells were treated with test compounds at various concentrations and incubated for 48 h. Vehicle control culture wells received only a maximum of 0.5% DMSO. The cell free culture supernatants were mixed with catalyst and dye solution and allowed to incubate for 15 min at room temperature. Finally, the reaction was stopped and the optical density was measured at 492 nm in a microplate reader (BioRad, USA). […]
(§3) Comparative cytotoxicity potential of DTIC and Compound 6 on B16F0 mouse melanoma cells and A375 human melanoma cells were further evaluated by measuring the leaked lactate dehydrogenase (LDH) into the culture supernatant (LDH Cytotoxicity Detection Kit^Plus, Roche Applied Sciences, Germany), following the methodology described earlier (Example 20). […]

[4] = system: A375 human melanoma cells; test: LDH leakage cytotoxicity assay in A375 cells; conditions: treatment concentration 100 μg/ml
Description: as §2, §3

[5] = system: MCF-7 human breast tumor cells; test: MTT cell proliferation assay in MCF-7 cells; conditions: MCF7, read-out: 50% of inhibitory concentration, IC50 MCF-7
Description: as §1
(§4) Anti-tumor growth potential of Compound 1 and Compound 6 were evaluated in MCF-7 human breast tumor cells, MIA-PaCa2 human pancreas tumor cells and DU145 human prostate tumor cells by using MTT based cell proliferation studies as described earlier (example 19). The results (mean OD±SD) obtained from quadruplicate wells were used in calculation to determine the inhibition of cell proliferation (50% of inhibitory concentration, IC50) of the test compounds (Table 4).

[6] = system: MIA-PaCa2 human pancreas tumor cells; test: MTT cell proliferation assay in MIA-PaCa2 cells; conditions: MIA PaCa-2, read-out: 50% of inhibitory concentration, IC50 MIA-PaCa2
Description: as §1, §4

[7] = system: B16F0 cells; test: B16 F0 mouse melanoma cell colony formation assay; conditions: B16F0, 192 h, 8 days, read-out: B16 colony growth inhibition; for inhibition at 100 µg/mL: 100 μg/ml
Description: Clone formation efficiency of the Compound 6 and DTIC was tested by following the procedure described earlier with some modifications (41). Briefly, B16F0 cells were harvested and seeded into 6-well plates (100 cells/ml). The cells were allowed to grow for 2 days and thereafter, the cells were incubated with DMEM containing either 0.1% DMSO or 100 μg/ml DTIC or 50 μg/ml and 100 μg/ml of Compound 6 for further 8 days. Fresh medium containing test agents was replaced at every 24 h. Finally, the wells were washed three times with PBS and fixed in methanol for 15 min. The cells were stained with Giemsa stain and observed under microscope. The image of the stained wells were captured digitally (Kodak Image Station 4000MM, Carestream Health Inc., New Haven, Conn.) and number of colonies were counted and analyzed by using NIH Image J software.

[8] = system: Human umbilical vein endothelial cells (HUVEC); test: In vitro capillary formation assay; conditions: HUVEC on Cultrex, 16 hours
Description: In vitro capillary formation assay was performed with Human umbilical vein endothelial cells (HUVEC), cultured on 10 mg/ml basement membrane extract (BME-Cultrex®, R&D Systems, USA) bed. The protocol of in vitro endothelial tube formation assay was the same as described earlier with some modifications (44). Briefly, four hundred microliters of Cultrex was coated at 4° C. in each well of 24-well culture plate and allowed to gel at 37° C. for 1 h. HUVECs were plated at a density of 7.5×10^4 cells per well with […] of DMEM supplemented with 10% fetal bovine serum and 4.5 g/l D-glucose. The cells were then treated with either DTIC or Compound 6 at desired concentration as indicated for 16 hours. Vehicle control cultures received only 0.1% DMSO. Pictures were taken under a Nikon Eclipse TS 100 microscope equipped with a Nikon Coolpix camera.

IC50 [1]	IC50 [2]	IC50 [5]	IC50 [6]	SMILES	% increase in LDH secretion with respect to vehicle treated control in B16 F0 cells [3]	% increase in LDH secretion with respect to vehicle treated control in A375 cells [4]	inhibition at 50 µg/mL ([7]; 50 μg/ml)	inhibition at 100 µg/mL [7]	capillary formation [8]
53.6 µg/mL (≈ 269 µM)	57.6 µg/mL (≈ 289 µM)	91.7 µg/mL (≈ 460 µM)	81.9 µg/mL (≈ 411 µM)	CN(C)/N=N/c1ccsc1C(=O)O [Compound 6, 3-[(dimethylamino)diazenyl]thiophene-2-carboxylic acid]	61.5%	331%	55.2%	68.7%	inhibition of capillary formation in a dose dependent manner
68.1 µg/mL (≈ 374 µM)	360 µg/mL (≈ 1980 µM)	135 µg/mL (≈ 742 µM)	203 µg/mL (≈ 1110 µM)	CN(C)/N=N/c1[nH]cnc1C(N)=O [DTIC, 5-(3,3-dimethyl-1-trizeno)-imidazole-4-carboxamide, reference compound]	5.7%	246%	–	37.6%	promoted capillary formation
